For test [1], the system named is permeability transition pore (PTP). Put plainly: Mitochondrial in vitro assay: calcium retention capacity (CRC) of isolated mouse liver mitochondria. To be noted: ratio of calcium required to open the PTP with vs without compound, 10 μM Ca2+ pulses at 1 min intervals, compound added 1 min before, 25° C. Type of test: biochemical. The text has this: The mitochondrial in vitro assay is based on the characteristics of mitochondrial organelles which allow the study of mitochondrial function in reductive sub-cellular in vitro systems. It is possible to investigate many mitochondrial processes in isolated mitochondrial suspension obtained from different tissues.
The ability of isolated mitochondria to uptake calcium from outside is a direct measure of mitochondrial integrity and functioning. Indeed MPT impairs the ability of mitochondria to upload calcium through specific channels that require an intact organelle structure. The assay takes advantage of this phenomenon to evaluate the ability of the invention compounds to interfere with MPT on isolated mitochondria.
Mitochondria were prepared from the livers of male 129 or C57/B6 mouse weighing 20-25 g. The animals were sacrificed by cervical dislocation. The livers were isolated and placed in ice-cold 0.25 M sucrose, 10 mM Tris-HCl, 0.1 mM ethylene-bis(oxoethylenenitrilo)tetraacetic acid (EGTA), pH 7.4 The livers were rinsed three-four times with ice-cold medium, minced with scissor and passed through a manual Potter homogenizer kept in an ice-water bath. The homogenate was diluted to 50 ml per liver, and unbroken cells and nuclei were sedimented by centrifugation at 900×g in a Beckman Avanti™ J-25 refrigerated centrifuge kept at 4° C. for 10 min. The supernatant was carefully decanted and centrifuged at 7000×g in the same centrifuge for 10 min. The supernatant was discarded and the mitochondrial pellets were carefully resuspended in ice-cold isolation medium and spun as above.
The resulting mitochondrial pellets were resuspended in a small amount of ice-cold isolation medium, and stored on ice. Mitochondria protein content was determined with the biuret assay.
The mitochondrial Ca^2+ retention capacity (CRC) is a sensitive measure of the propensity of mitochondria to open the PTP after Ca^2+ uptake. Since mitochondria are bidirectionally permeable to Ca^2+ owing to the presence of a Ca^2+ uniporter in their inner membrane, the mitochondrial membrane potential (Δψm) is responsible for the Ca^2+ accumulation in the mitochondrial matrix and consequent Ca^2+ gradient. Any drop in Δψm, such as depolarization caused by H^+ influx during PTP opening, is expected to result in a redistribution of Ca^2+ between the intra and extra-mitochondrial spaces, during which Ca^2+ uses all available routes through the mitochondrial membrane.
CRC of mitochondrial preparations was assessed fluorimetrically in the presence of the fluorescent Ca^2+ indicator Calcium Green-5N (excitation-emission: 505-535 nm) with a Perkin-Elmer LS 55 spectrofluorimeter equipped with a magnetic stirrer and thermostatic control set to 25° C. (Ichas, F.; Jouaville, L. S.; Mazat, J. P. Mitochondria are excitable organelles capable of generating and conveying electrical and calcium signal. Cell., 1997, 89, 1145-1153). Calcium Green-5N is a fluorometric probe that is not permeable to membranes and when added to a mitochondrial suspension is able to detect the presence of Ca^2+ in the extra-mitochondrial medium. Mitochondria were loaded with a train of 10 μM Ca^2+ pulses at 1 min intervals. Under these conditions mitochondria took up actively and retained Ca^2+ until a point at which mitochondria underwent a fast process of Ca^2+ release due to the opening of the PTP. The number of calcium pulses (final concentration of calcium) required to open the PTP is the mitochondrial CRC. This Ca^2+ loading protocol thus provides a convenient and sensitive assay for measuring PTP opening and it is used to assess the ability of the compounds of the invention to inhibit PTP opening. Compounds were added directly to the mitochondrial solution 1 min. prior to the start of calcium pulsing and the number of calcium pulses required to open the PTP was determined. […]

Test [2] deals with experimental autoimmune encephalomyelitis (EAE). Put plainly: Experimental autoimmune encephalomyelitis (EAE) model of multiple sclerosis. Type of test: in vivo, mouse. From the text:
Experimental autoimmune encephalomyelitis (EAE) is possibly the best animal model to study demyelinating diseases of the central nervous system (CNS) such as multiple sclerosis (MS) Since the first classical studies EAE has been an invaluable tool for dissecting mechanisms of the immune response against self-antigens within the CNS, as well as to test new therapies for the treatment of autoimmune diseases. Rodents are susceptible to EAE. Depending upon species, antigens and mode of sensitisation, EAE can have a monophasic acute course or a chronic relapsing, and even a primarily progressive course that mimics human MS. Acute models of EAE allow faster experimentation and observation, whereas chronic models allow wider observation, such as preventive versus therapeutic treatments.
Seven week-old C57 black/6N female mice were immunized with an emulsion of mycobacterium tubercolosis and the peptide spanning the sequence 35aa-55aa of the myelin oligodendrocyte glycoprotein (MOG) dissolved in phosphate buffer and Freud adjuvant. Mice were injected subcutaneously, in three different sites, with a total of 0.3 ml of emulsion. Immediately after the immunization mice were injected intravenously with 0.1 ml of pertussin toxin ([…]). […]
Starting from day 10 after the immunization mice were evaluated daily for weight loss and locomotive defects. […]

For test [3], the system named is retinal neo-vascularisation. Put plainly: Mouse retinopathy of prematurity (ROP) model of ischemia-induced retinal neo-vascularisation. Type of test: in vivo. To be noted: ROP mice. On the procedure:
Retinal neo-vascularisation was assessed in a mouse retinopathy of prematurity (ROP) model of ischemia-induced retinal neo-vascularisation. In rodents, retinal vascularisation is generally completed by post-natal day 14 (P14). Oxygen treatment during the second week of life partially causes vaso-obliteration of immature retinal vessels around the optic disk and it blocks subsequent vascular development of the deep retinal layers. When oxygen treatment is stopped, the ischemia of the retina triggers abnormal vessel growth, i.e., retinal neovascularisation.
At postnatal day 7 (P7), newborn mice were exposed to 75% O2 for 5 days in an oxygen incubator. […] Oxygen concentration was monitored by an Oxygen Monitor (Miniox III; Catalyst Research, MD). […]
At day 12 (P12) animals were removed from the oxygen exposure chamber and injected intra-vitreously with a Hamilton syringe with compounds or vehicle solution. […] Flat-mounted retinas were photographed by fluorescence microscopy (Zeiss Axioplan Thornwood, N.Y.) and by computer-imaging (KS300, Kontron Electronik GmbH, Germany) retinal images captured. […]
Eyes from the same groups, at p17, were fixed and sections were prepared and stained with hematoxylin and eosin to quantify the amount of endothelial cells developed. […]

As for `Cc1cccc(N2C(=O)C=C(c3ccc(Cl)cc3)C2=O)c1` [Example 53, 1-(3-methylphenyl)-3-(4-chlorophenyl)-pyrrole-2,5-dione], in test [1], the CRC efficacy was 2.17. On the same count and under the same terms, the same measure for `Cc1cccc(N2C(=O)C=C(c3ccccc3)C2=O)c1` [Example 22, 1-(3-methylphenyl)-3-phenyl-pyrrole-2,5-dione]: 2.57; for `O=C1C=C(c2cccc(F)c2)C(=O)N1c1cccc(Cl)c1` [Example 9, 1-(3-chlorophenyl)-3-(3-fluorophenyl)-pyrrole-2,5-dione]: 2.75.

As for `O=C1C=C(c2cccc(F)c2)C(=O)N1c1ccc(F)c(Cl)c1` [Example 10, 1-(3-chloro-4-fluorophenyl)-3-(3-fluorophenyl)-pyrrole-2,5-dione], in test [1], the CRC efficacy is listed as 2.27. Still for that read-out and setting: then `Cc1ccc(C2=CC(=O)N(c3cccc(Cl)c3)C2=O)cc1` [Example 57, 1-(3-chlorophenyl)-3-(4-methylphenyl)-pyrrole-2,5-dione], with 2.66.

`O=C1C=C(c2ccccc2)C(=O)N1c1cccc(Br)c1` [Example 20, 1-(3-bromophenyl)-3-phenyl-pyrrole-2,5-dione]: the CRC efficacy in test [1] is listed as 2.33. On the same count and under the same terms, then `O=C1C=C(c2ccccc2)C(=O)N1c1cccc(C(F)(F)F)c1` [Example 31, 1-(3-trifluoromethylphenyl)-3-phenyl-pyrrole-2,5-dione], with 2; and `COc1ccc(C2=CC(=O)N(c3cccc(Cl)c3)C2=O)cc1` [Example 48, 1-(3-chlorophenyl)-3-(4-methoxyphenyl)-pyrrole-2,5-dione], with 2.11; and `O=C1C=C(c2ccc(O)cc2)C(=O)N1c1cccc(Cl)c1` [Example 36, 1-(3-chlorophenyl)-3-(4-hydroxyphenyl)-pyrrole-2,5-dione], with 1.87. With `O=C1C=C(c2ccc(F)cc2)C(=O)N1c1cccc(Cl)c1` [Example 2, 1-(3-chlorophenyl)-3-(4-fluorophenyl)-pyrrole-2,5-dione], in test [1], the CRC efficacy amounted to 2.5. Regarding `O=C1C=C(c2ccc(Cl)cc2)C(=O)N1c1cccc(Cl)c1` [Example 55, 1-(3-chlorophenyl)-3-(4-chlorophenyl)-pyrrole-2,5-dione], the CRC efficacy in test [1] stood at 2.33. Same read-out and setting: then `O=C1C=C(c2ccccc2F)C(=O)N1c1ccc(F)c(Cl)c1` [Example 14, 1-(3-chloro-4-fluorophenyl)-3-(2-fluorophenyl)-pyrrole-2,5-dione], with 2.22; and `O=C1C=C(c2ccccc2)C(=O)N1c1ccc(F)c(Cl)c1` [Example 61, 1-(3-chloro-4-fluorophenyl)-3-phenyl-pyrrole-2,5-dione], with 2.83. Turning to `COc1ccc(Cl)cc1N1C(=O)C=C(c2ccccc2)C1=O` [Example 58, 1-(5-chloro-2-methoxyphenyl)-3-phenyl-pyrrole-2,5-dione], the CRC efficacy in test [1] is recorded as 1.86. Take `O=C1C=C(c2ccccc2)C(=O)N1c1cccc(Cl)c1` [Example 63, 1-(3-chlorophenyl)-3-phenyl-pyrrole-2,5-dione]: the “treated mice developing inferior limb paresis after 20 days” value in test [2] (5 mg/kg intraperitoneally every day from day 4, approximately 30% of the untreated EAE mice developed it) is “no one”. Also, the “development of the disease (average clinical score, non parametric scale 0-5)” value in test [2] (C57 black/6N female mice, MOG 35-55 immunization, 5 mg/kg intraperitoneally every day from day 4, FIG. 2) was “significantly prevented”. Besides, the “neovascularization, fluorangiographic analysis” value in test [3] (intravitreal injection at P12, approximately 1 or 2 or 4 microM in the vitreum, analysis at p17, vs DMSO vehicle) was “significant reduction”. In test [3] (intravitreal injection at P12, eyes at p17, hematoxylin and eosin sections, FIG. 1), the “number of endothelial cells present in the eye (per section)” value is “significantly reduces”. Besides, in test [1], the CRC efficacy came to 2.5. Take `O=C1C=C(c2ccccc2F)C(=O)N1c1cccc(Cl)c1` [Example 13, 1-(3-chlorophenyl)-3-(2-fluorophenyl)-pyrrole-2,5-dione]: the CRC efficacy in test [1] was 2.

Values taken from patent US7915304B2, “Phenyl substituted maleimides as medicaments for blocking degenerative tissue damages by inhibiting MPT” (Congenia S.r.l., priority 2006, dated 2011).
